Data from patent publication US10772327B2, “Herbicide composition containing isopropylamine caprylate” (HUNAN AGRICULTURAL BIOTECHNOLOGY RESEARCH INSTITUTE, priority 2018, dated 2020).

How the values were obtained:
Assay in all cases: Indoor test for herbicidal activity, stem and leaf spray on potted weeds
Settings in all cases: Day 7, fresh weight of above-ground portion
[1] = test system: Echinochloa crusgalli
[2] = test system: Ludwigia prostrata
[3] = test system: Eleocharis yokoscensis; assay type: in vivo
[4] = test system: Beckmannia syzigachne; assay type: in vivo
[5] = test system: Poa annua; assay type: in vivo
[6] = test system: Conyza candesis; assay type: in vivo
[7] = test system: Myosoton aquaticum; assay type: in vivo
[8] = test system: Xanthium sibiricum; assay type: in vivo
[9] = test system: Veronica persica; assay type: in vivo
[10] = test system: Stellaria media; assay type: in vivo
[11] = test system: Cardamine hirsuta; assay type: in vivo
[12] = listed as glyphosate isopropylamine
[13] = listed as glyphosate isopropylamine salt
[14] = listed as isopropylamine caprylate

CCCCCCCC(=O)O [Caprylic acid]
ED50 (95% confidence interval of ED50) [1]: 14.07 (13.66-14.48) mg/mL
ED90 (95% confidence interval of ED90) [1]: 108.65 (92.83-124.80) mg/mL
ED50 (95% confidence interval of ED50) ([1]; listed as caprylic acid): 14.07 mg/mL
ED50 (95% confidence interval of ED50) [2]: 12.52 (10.66-14.43) mg/mL
ED90 (95% confidence interval of ED90) [2]: 96.04 (85.15-108.33) mg/mL
ED50 (95% confidence interval of ED50) ([2]; listed as caprylic acid): 12.52 mg/mL

CC(C)N.O=C(O)CNCP(=O)(O)O [Glyphosate isopropylamine]
ED50 (95% confidence interval of ED50) [1]: 52.18 (40.13-65.02) mg/mL
ED90 (95% confidence interval of ED90) [1]: 384.59 (360.35-420.77) mg/mL
ED50 (95% confidence interval of ED50) [1, 12]: 52.18 mg/mL
ED50 (95% confidence interval of ED50) [1, 13]: 52.18 mg/mL
ED50 (95% confidence interval of ED50) [2]: 46.79 (41.87-52.27) mg/mL
ED90 (95% confidence interval of ED90) [2]: 321.75 (271.72-380.99) mg/mL
ED50 (95% confidence interval of ED50) [2, 12]: 46.79 mg/mL
ED50 (95% confidence interval of ED50) [2, 13]: 46.79 mg/mL

CCCCCCCC(=O)O [Isopropylamine caprylate, isopropylamine caprylate]
ED50 (95% confidence interval of ED50) [3]: 3.23 (2.00-9.55) mg/mL
ED90 (95% confidence interval of ED90) [3]: 24.11 (18.74-40.82) mg/mL
ED50 (95% confidence interval of ED50) [4]: 3.07 (1.66-8.48) mg/mL
ED90 (95% confidence interval of ED90) [4]: 30.65 (24.12-44.50) mg/mL
ED50 (95% confidence interval of ED50) [5]: 3.07 (2.66-10.48) mg/mL
ED90 (95% confidence interval of ED90) [5]: 28.65 (22.83-40.82) mg/mL
ED50 (95% confidence interval of ED50) [6]: 0.74 (0.25-1.05) mg/mL
ED90 (95% confidence interval of ED90) [6]: 15.54 (8.74-20.93) mg/mL
ED50 (95% confidence interval of ED50) [7]: 0.18 (0.04-0.25) mg/mL
ED90 (95% confidence interval of ED90) [7]: 16.47 (8.35-20.23) mg/mL
ED50 (95% confidence interval of ED50) [8]: 0.64 (0.22-1.03) mg/mL
ED90 (95% confidence interval of ED90) [8]: 19.11 (10.80-31.14) mg/mL
ED50 (95% confidence interval of ED50) [9]: 0.78 (0.28-2.35) mg/mL
ED90 (95% confidence interval of ED90) [9]: 9.16 (5.09-22.65) mg/mL
ED50 (95% confidence interval of ED50) [10]: 0.80 (0.47-1.77) mg/mL
ED90 (95% confidence interval of ED90) [10]: 16.69 (7.91-26.98) mg/mL
ED50 (95% confidence interval of ED50) [11]: 0.90 (0.11-2.46) mg/mL
ED90 (95% confidence interval of ED90) [11]: 18.36 (10.74-35.88) mg/mL
ED50 (95% confidence interval of ED50) [1]: 4.07 (2.66-10.48) mg/mL
ED90 (95% confidence interval of ED90) [1]: 28.65 (22.83-40.82) mg/mL
ED50 (95% confidence interval of ED50) [1, 14]: 4.07 mg/mL
ED50 (95% confidence interval of ED50) [2]: 0.52 (0.35-0.61) mg/mL
ED90 (95% confidence interval of ED90) [2]: 13.21 (9.17-18.31) mg/mL
ED50 (95% confidence interval of ED50) [2, 14]: 0.52 mg/mL
